SMILES strings stand for the structures. In brackets after ≈: the same amount, converted by molar mass.

For one data set, the system named is S. aureus VISA5827. The data set can be described thus: Antibacterial spectrum. The settings on record: Staphylococcus aureus.
In a further data set the test system is S. aureus MSSA15-2. The data set can be described thus: Antibacterial spectrum. The settings on record: Staphylococcus aureus, MSSA152.
The next data set concerns E. faecium EFM19-1. Kind of data set: Antibacterial spectrum. As to conditions: Enterococcus faecium, EFM191.
In another data set the target is S. aureus GyrB24 (Staphylococcus aureus, UniProt P0A0K8). Kind of data set: Surface plasmon resonance. The format is binding. (In general: In SPR one partner is held on a chip, and binding of the other changes the refractive index at the surface.)
The test system of the next data set is S. aureus MSSA15-1. The data set can be described thus: Antibacterial spectrum. As to conditions: Staphylococcus aureus, MSSA151.
The next data set has as its system E. faecalis ATCC51575. Kind of data set: Antibacterial spectrum. The settings on record: Enterococcus faecalis.
The target in another data set is S. aureus gyrase (Staphylococcus aureus, UniProt P0A0K8). Kind of data set: Gyrase inhibitory assay. It counts as biochemical.
Another data set deals with S. aureus MRSA15-1. The data set can be described thus: Antibacterial spectrum. The settings on record: Staphylococcus aureus, MRSA151.
Another data set relates to HepG2 cells. The data set can be described thus: Mitochondrial toxicity.
Another data set deals with S. epidermidis MSSE15-3. The data set can be described thus: Antibacterial spectrum. The settings on record: Staphylococcus epidermidis, MSSE153.
The test system of another data set is S. aureus ATCC43300. The data set can be described thus: Antibacterial spectrum. The settings on record: Staphylococcus aureus.
Another data set relates to E. faecalis ATCC51299. The data set can be described thus: Antibacterial spectrum. The settings on record: Enterococcus faecalis.
Data set [1] concerns S. aureus (ATCC29213). Kind of data set: Antibacterial assay. As to conditions: Staphylococcus aureus, ATCC29213, read-out: MIC S. aureus (ATCC29213).
The subject of the next data set is S. epidermidis MRSE15-2. The data set can be described thus: Antibacterial spectrum. The settings on record: Staphylococcus epidermidis, MRSE152.
In another data set the test system is S. aureus VISA5836. Kind of data set: Antibacterial spectrum. As to conditions: Staphylococcus aureus.
In data set [2] the test system is S. aureus (ATCC29213). Kind of data set: Time-killing curves / killing kinetic studies. The format is cell-based. The settings on record: 4, 8, and 16 × MIC.
A further data set concerns E. coli (ATCC25922). The data set can be described thus: Antibacterial assay. The settings on record: for MIC: Escherichia coli, ATCC25922, read-out: MIC E. coli (ATCC25922).
The subject of data set [3] is methicillin-resistant S. aureus (ATCC43300). The data set can be described thus: Mouse model of sepsis induced by MRSA. The format is in vivo, ICR mice. As to conditions: 10 mg/kg ig, MRSA ATCC43300, observed 7 days.
The subject of the next data set is S. aureus MRSA15-2. Kind of data set: Antibacterial spectrum. As to conditions: Staphylococcus aureus, MRSA152.
For another data set, the system named is S. epidermidis MRSE15-1. Kind of data set: Antibacterial spectrum. As to conditions: Staphylococcus epidermidis, MRSE151.
A further data set concerns the target E. coli gyrase (Escherichia coli, UniProt P0AES6). The data set can be described thus: Gyrase inhibitory assay. It counts as biochemical.
For another data set, the target named is S. aureus Topo IV (Staphylococcus aureus, UniProt P0C1S7). Kind of data set: Topo IV inhibitory assay. The format is biochemical.
Another data set addresses E. coli Topo IV (Escherichia coli, UniProt P20083). The data set can be described thus: Topo IV inhibitory assay. It counts as biochemical.
The next data set relates to MRSA (ATCC43300). The data set can be described thus: Neutropenic murine thigh MRSA infection model. As to conditions: neutropenic mouse thigh MRSA infection, iv. It counts as in vivo, ICR mice.

Chain of E. coli Topo IV (P20083 whole entry): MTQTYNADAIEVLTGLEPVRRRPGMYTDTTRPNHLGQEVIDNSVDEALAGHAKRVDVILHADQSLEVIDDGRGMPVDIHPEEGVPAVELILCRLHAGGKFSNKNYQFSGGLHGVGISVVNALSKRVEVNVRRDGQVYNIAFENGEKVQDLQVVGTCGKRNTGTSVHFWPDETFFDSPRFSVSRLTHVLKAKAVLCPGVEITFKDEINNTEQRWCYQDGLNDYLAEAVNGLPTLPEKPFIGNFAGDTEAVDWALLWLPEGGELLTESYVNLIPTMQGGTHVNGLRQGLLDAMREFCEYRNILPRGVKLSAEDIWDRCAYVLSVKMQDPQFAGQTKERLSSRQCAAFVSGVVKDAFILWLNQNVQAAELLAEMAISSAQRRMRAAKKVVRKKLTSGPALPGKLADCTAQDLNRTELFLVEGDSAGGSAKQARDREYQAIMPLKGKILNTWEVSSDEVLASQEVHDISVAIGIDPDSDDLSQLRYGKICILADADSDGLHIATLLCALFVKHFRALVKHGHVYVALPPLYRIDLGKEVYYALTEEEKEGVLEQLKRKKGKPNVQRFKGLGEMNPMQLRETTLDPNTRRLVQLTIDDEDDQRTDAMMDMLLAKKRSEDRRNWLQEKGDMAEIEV
Chain of E. coli Topo IV (P0AFI2 whole entry partner): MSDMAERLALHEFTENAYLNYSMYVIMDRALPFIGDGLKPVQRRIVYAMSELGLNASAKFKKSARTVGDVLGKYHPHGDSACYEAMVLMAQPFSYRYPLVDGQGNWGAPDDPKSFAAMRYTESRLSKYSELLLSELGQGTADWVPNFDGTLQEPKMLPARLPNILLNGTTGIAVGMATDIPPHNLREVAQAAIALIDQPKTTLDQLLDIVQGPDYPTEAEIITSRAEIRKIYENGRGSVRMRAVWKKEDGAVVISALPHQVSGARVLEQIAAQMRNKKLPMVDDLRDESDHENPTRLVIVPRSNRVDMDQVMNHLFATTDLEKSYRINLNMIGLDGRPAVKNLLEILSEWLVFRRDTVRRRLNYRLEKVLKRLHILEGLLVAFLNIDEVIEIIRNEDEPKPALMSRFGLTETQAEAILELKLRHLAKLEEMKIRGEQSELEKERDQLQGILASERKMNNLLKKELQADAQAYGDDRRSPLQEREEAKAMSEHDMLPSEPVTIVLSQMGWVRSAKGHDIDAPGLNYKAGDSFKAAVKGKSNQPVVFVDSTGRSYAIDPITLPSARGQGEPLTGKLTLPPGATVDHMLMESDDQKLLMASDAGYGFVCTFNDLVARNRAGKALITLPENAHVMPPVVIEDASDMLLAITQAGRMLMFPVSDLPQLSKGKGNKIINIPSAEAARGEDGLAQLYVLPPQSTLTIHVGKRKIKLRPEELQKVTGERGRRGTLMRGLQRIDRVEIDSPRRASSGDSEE
Chain of S. aureus Topo IV (P0C1S7 whole entry): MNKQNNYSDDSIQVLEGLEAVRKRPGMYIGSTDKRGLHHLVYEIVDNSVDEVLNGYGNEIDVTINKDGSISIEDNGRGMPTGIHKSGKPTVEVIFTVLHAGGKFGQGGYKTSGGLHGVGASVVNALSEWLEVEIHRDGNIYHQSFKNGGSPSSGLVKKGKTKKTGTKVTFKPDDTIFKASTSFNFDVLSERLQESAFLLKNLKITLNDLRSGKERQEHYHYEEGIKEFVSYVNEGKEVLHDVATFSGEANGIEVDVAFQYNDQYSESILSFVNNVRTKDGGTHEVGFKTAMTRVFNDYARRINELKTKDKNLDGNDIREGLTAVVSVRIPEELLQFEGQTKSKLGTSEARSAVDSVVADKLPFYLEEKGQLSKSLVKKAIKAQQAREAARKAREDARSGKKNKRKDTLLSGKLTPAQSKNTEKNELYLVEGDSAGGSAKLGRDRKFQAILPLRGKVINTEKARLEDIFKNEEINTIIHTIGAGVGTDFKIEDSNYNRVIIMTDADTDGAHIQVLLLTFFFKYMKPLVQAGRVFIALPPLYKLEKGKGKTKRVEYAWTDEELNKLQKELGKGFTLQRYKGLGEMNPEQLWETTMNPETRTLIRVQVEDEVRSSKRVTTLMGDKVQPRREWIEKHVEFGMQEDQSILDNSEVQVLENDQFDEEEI
Chain of S. aureus Topo IV (P0C1U9 whole entry partner): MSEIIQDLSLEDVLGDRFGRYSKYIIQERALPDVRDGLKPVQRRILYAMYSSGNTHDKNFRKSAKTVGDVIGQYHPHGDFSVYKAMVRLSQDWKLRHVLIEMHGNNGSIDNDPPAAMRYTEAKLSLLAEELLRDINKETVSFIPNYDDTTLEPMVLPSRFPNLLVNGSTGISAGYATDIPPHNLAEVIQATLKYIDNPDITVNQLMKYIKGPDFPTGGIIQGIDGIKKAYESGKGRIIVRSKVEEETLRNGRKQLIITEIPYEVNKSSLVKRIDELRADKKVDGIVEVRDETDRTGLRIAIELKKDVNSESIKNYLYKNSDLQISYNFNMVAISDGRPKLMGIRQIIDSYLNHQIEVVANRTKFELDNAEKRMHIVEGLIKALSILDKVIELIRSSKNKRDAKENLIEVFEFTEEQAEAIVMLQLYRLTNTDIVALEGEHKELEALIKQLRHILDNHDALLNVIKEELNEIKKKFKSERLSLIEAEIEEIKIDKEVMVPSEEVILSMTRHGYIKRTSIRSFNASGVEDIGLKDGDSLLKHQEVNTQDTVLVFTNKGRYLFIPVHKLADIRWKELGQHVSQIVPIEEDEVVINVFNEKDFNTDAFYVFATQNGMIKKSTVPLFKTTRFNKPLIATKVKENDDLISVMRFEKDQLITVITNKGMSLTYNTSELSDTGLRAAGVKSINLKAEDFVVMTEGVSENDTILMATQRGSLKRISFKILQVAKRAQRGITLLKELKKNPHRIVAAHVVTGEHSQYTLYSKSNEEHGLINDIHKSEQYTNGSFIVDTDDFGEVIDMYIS
Chain of S. aureus gyrase (P0A0K8 whole entry): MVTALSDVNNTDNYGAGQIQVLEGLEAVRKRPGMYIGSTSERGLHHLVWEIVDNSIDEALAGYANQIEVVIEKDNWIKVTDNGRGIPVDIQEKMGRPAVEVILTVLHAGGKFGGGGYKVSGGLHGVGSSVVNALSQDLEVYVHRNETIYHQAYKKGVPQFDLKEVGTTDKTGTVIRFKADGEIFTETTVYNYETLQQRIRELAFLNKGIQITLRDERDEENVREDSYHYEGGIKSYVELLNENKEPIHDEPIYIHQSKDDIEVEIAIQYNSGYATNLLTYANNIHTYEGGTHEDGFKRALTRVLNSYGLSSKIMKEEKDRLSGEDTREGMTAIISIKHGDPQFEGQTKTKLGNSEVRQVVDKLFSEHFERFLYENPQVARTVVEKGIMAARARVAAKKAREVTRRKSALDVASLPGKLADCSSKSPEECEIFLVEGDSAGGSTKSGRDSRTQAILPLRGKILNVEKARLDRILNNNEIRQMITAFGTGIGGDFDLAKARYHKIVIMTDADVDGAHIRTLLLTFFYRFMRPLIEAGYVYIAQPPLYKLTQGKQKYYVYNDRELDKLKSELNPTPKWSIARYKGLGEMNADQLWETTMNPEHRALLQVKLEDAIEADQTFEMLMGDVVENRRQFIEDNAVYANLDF
Chain of S. aureus gyrase (P20831 whole entry partner): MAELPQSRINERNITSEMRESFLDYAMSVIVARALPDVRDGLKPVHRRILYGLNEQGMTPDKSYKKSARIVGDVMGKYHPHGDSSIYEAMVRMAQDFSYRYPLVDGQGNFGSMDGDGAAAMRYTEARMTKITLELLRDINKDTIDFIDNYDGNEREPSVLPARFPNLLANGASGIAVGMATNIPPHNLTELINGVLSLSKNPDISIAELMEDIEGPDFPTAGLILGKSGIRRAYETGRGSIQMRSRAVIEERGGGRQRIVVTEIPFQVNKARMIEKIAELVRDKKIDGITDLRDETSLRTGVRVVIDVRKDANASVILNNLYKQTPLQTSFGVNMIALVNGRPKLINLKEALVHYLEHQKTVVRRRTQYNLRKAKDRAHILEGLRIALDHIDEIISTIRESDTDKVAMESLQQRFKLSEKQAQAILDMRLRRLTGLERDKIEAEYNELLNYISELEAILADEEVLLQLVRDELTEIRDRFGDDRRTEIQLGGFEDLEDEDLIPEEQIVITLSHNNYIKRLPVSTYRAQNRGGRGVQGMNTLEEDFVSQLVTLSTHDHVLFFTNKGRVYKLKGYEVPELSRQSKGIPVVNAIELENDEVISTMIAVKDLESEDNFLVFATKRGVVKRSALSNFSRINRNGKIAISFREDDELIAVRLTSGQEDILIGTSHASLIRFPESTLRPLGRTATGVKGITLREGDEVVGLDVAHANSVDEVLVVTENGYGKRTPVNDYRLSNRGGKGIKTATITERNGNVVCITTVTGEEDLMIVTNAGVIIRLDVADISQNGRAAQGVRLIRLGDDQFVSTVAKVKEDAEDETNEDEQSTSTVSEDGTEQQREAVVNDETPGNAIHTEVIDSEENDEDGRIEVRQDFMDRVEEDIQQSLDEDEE
Chain of S. aureus GyrB24 (P0A0K8 2-220): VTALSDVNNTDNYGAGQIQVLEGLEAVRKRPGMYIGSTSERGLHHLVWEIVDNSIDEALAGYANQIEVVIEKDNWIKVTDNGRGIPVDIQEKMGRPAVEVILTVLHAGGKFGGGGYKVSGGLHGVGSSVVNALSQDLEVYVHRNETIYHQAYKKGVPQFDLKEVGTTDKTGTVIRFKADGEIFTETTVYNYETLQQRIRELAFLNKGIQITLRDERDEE

Turning to `COC[C@H](C)NC(=O)c1nc(N2CC[C@@H](NC(=O)c3[nH]c(C)c(Cl)c3Cl)[C@@H](OC)C2)sc1C(=O)O` [AZD5099 (6), reference compound], the MIC in the data set with S. aureus VISA5827 came to 0.015 µg/mL (≈ 0.0273 µM); against S. aureus MSSA15-2, 0.03 µg/mL (≈ 0.0547 µM); with E. faecium EFM19-1, 0.03 µg/mL (≈ 0.0547 µM); in the data set with S. aureus MSSA15-1, 0.03 µg/mL (≈ 0.0547 µM); in the data set with E. faecalis ATCC51575 it was 0.03 µg/mL (≈ 0.0547 µM); in the data set on S. aureus MRSA15-1, 0.03 µg/mL (≈ 0.0547 µM). The MIC in the data set on S. epidermidis MSSE15-3 was 0.03 µg/mL (≈ 0.0547 µM); against S. aureus ATCC43300 it was 0.03 µg/mL (≈ 0.0547 µM); in the data set on E. faecalis ATCC51299, 0.03 µg/mL (≈ 0.0547 µM); with S. aureus (ATCC29213) [1] it was 0.015 µg/mL (≈ 0.0273 µM); in the data set on S. epidermidis MRSE15-2, 0.03 µg/mL (≈ 0.0547 µM); against S. aureus VISA5836, 0.015 µg/mL (≈ 0.0273 µM). Besides, the MIC in the data set on E. coli (ATCC25922) was determined as 32 µg/mL (≈ 58.3 µM); in the data set on S. aureus MRSA15-2, 0.03 µg/mL (≈ 0.0547 µM); against S. epidermidis MRSE15-1, 0.03 µg/mL (≈ 0.0547 µM). Further, the Kd on S. aureus GyrB24 was 83.8 nM. The IC50 is 32 ± 14 nM at S. aureus gyrase; under 200000 nM with HepG2 cells (Homo sapiens, HepG2, read-out: mitochondrial toxicity IC50); 760 nM against E. coli gyrase. Also, the “mitochondrial toxicity” value in the data set on HepG2 cells (HepG2 cells, 400 μmol/L) was “complete damage”. In addition, the “time-kill curve” value with S. aureus (ATCC29213) [2] is given as “time-dependent bactericidal effect”. Besides, the “protective effect / survival in mouse model of sepsis” value (“protective effect / survival” below) in [3] is given as “survived”.

As to `COC(=O)c1ccc(N2CC[C@@H](NC(=O)c3[nH]c(C)c(Cl)c3Cl)[C@@H](OC)C2)nn1` [Compound 14, Methyl-6-((3S,4R)-4-(3,4-dichloro-5-methyl-1H-pyrrole-2-carboxamido)-3-methoxypiperidin-1-yl)pyridazine-3-carboxylate], the IC50 against S. aureus Topo IV was 7180 ± 2810 nM; at S. aureus gyrase, 136 ± 20 nM; against E. coli Topo IV, over 10000 nM; on E. coli gyrase, 3120 ± 923 nM. The MIC with S. aureus (ATCC29213) [1] was 0.015 µg/mL (≈ 0.0339 µM); with E. coli (ATCC25922), 1 µg/mL (≈ 2.26 µM). The “protective effect / survival” value in data set [3] is reported as “weak protective effects”.

Regarding `CO[C@H]1CN(c2ccc(C(=O)C(F)(F)F)nn2)CC[C@H]1NC(=O)c1[nH]c(C)c(Cl)c1Cl` [Compound 22, 3,4-Dichloro-N-((3S,4R)-3-methoxy-1-(6-(2,2,2-trifluoroacetyl)pyridazin-3-yl)piperidin-4-yl)-5-methyl-1H-pyrrole-2-carboxamide], the IC50 against S. aureus Topo IV is 2130 ± 753 nM; against S. aureus gyrase it was 45 ± 9 nM; against E. coli Topo IV, over 10000 nM; against E. coli gyrase, 788 ± 289 nM. The MIC in the data set with S. aureus (ATCC29213) [1] was at most 0.015 µg/mL; in the data set on E. coli (ATCC25922) it was 1 µg/mL (≈ 2.08 µM). Besides, the “protective effect / survival” value in [3] was “weak protective effects”.

In the case of `CO[C@H]1CN(c2ccc(/C(C)=N/O)nn2)CC[C@H]1NC(=O)c1[nH]c(C)c(Cl)c1Cl` [Compound 23, 3,4-Dichloro-N-((3S,4R)-1-(6-((E)-1-(hydroxyimino)ethyl)pyridazin-3-yl)-3-methoxypiperidin-4-yl)-5-methyl-1H-pyrrole-2-carboxamide], the values for the IC50 against S. aureus gyrase and against E. coli gyrase were 1490 ± 234 nM and 2560 nM, respectively. Moreover, the MIC in the data set on S. aureus (ATCC29213) [1] was at most 0.015 µg/mL; in the data set on E. coli (ATCC25922), 1 µg/mL (≈ 2.27 µM). Also, in [3], the “protective effect / survival” value is reported as “weak protective effects”.

For `CO[C@H]1CN(c2ccc(/C(C)=N/OC(C)(C)C(=O)O)nn2)CC[C@H]1NC(=O)c1[nH]c(C)c(Cl)c1Cl` [Compound 26, 2-((((E)-1-(6-((3S,4R)-4-(3,4-Dichloro-5-methyl-1H-pyrrole-2-carboxamido)-3-methoxypiperidin-1-yl)pyridazin-3-yl)ethylidene)amino)oxy)-2-methylpropanoic acid], the IC50 at S. aureus Topo IV is 5710 ± 2140 nM; against S. aureus gyrase, 52 ± 13 nM; at E. coli Topo IV, over 10000 nM; at E. coli gyrase it was 869 ± 313 nM. Moreover, the minimal inhibitory concentration (MIC) with S. aureus (ATCC29213) [1] is 0.125 µg/mL (≈ 0.237 µM); in the data set on E. coli (ATCC25922), over 128 µg/mL. Also, the “MIC E. coli (ATCC25922)” value in the data set with E. coli (ATCC25922) was “inactive”.

For `CO[C@@H]1[C@@H](OC(N)=O)[C@@H](O)[C@H](Oc2ccc3c(O)c(NC(=O)c4ccc(O)c(CC=C(C)C)c4)c(=O)oc3c2C)OC1(C)C` [novobiocin (1), novobiocin, reference compound], on S. aureus Topo IV, half-maximal inhibition (IC50) required 383 ± 120 nM. For the same molecule, the MIC with S. aureus (ATCC29213) [1] stood at 0.5 µg/mL (≈ 0.816 µM); with E. coli (ATCC25922) it was 128 µg/mL (≈ 209 µM).

`CN[C@H](CC(C)C)C(=O)N[C@H]1C(=O)N[C@@H](CC(N)=O)C(=O)N[C@H]2C(=O)N[C@H]3C(=O)N[C@H](C(=O)N[C@H](C(=O)O)c4cc(O)cc(O)c4-c4cc3ccc4O)[C@H](O)c3ccc(c(Cl)c3)Oc3cc2cc(c3O[C@@H]2O[C@H](CO)[C@@H](O)[C@H](O)[C@H]2O[C@H]2C[C@](C)(N)[C@H](O)[C@H](C)O2)Oc2ccc(cc2Cl)[C@H]1O` [vancomycin, reference compound] yielded an effective dose with MRSA (ATCC43300) of 110 mg/kg.

A word on the MIC: it is the lowest concentration found to suppress growth. Broadly, the Kd is the concentration at which binding is half-saturated. A high value points to a looser complex. As usually defined, the IC50 is the concentration that inhibits the measured activity by half.

These data come from PMC10692473 (Acta Pharmaceutica Sinica. B, 2023).
